Read-outs that look alike come from different tables or passages of the source.
How the values were obtained:
HepG2-A16-CD81EGFP cells = assay: cells; settings: Homo sapiens; for IC50: HepG2, read-out: Tox IC50; for inhibition at 50 µM: HepG2, read-out: Tox max inhibition (%) @ 50 uM; for inhibition at 10 µM: HepG2, read-out: Tox max inhibition (%) @ 10 uM
[1] = tested on: Plasmodium berghei (Pb-Luc) exoerythrocytic-stage parasites; assay: microbe, parasite or virus in culture; settings: for inhibition at 10 µM: read-out: PbLuc max inhibition (%) @ 10 uM
[2] = target: QuantiLum Recombinant Luciferase (Photinus pyralis, UniProt P08659); assay: Bioluminescence quantification of compound luciferase inhibition; settings: for Emax: read-out: LucInhib max inhibition
[3] = HepG2, read-out: HepG2 Tox% @ 50 uM rep1
[4] = read-out: Inhibition% @ 50 uM rep1
[5] = read-out: Inhibition% @ 50 uM rep2
[6] = read-out: PbLuc IC50, dose response, 1/3 dilutions, max conc. 10 or 50 uM, unit inferred
[7] = read-out: PbLuc max inhibition (%) @ 50 uM
[8] = HepG2, read-out: HepG2 Tox% @ 50 uM rep2
[9] = read-out: PbLuc IC50, dose response, unit inferred

Sequence of QuantiLum Recombinant Luciferase (P08659 whole entry): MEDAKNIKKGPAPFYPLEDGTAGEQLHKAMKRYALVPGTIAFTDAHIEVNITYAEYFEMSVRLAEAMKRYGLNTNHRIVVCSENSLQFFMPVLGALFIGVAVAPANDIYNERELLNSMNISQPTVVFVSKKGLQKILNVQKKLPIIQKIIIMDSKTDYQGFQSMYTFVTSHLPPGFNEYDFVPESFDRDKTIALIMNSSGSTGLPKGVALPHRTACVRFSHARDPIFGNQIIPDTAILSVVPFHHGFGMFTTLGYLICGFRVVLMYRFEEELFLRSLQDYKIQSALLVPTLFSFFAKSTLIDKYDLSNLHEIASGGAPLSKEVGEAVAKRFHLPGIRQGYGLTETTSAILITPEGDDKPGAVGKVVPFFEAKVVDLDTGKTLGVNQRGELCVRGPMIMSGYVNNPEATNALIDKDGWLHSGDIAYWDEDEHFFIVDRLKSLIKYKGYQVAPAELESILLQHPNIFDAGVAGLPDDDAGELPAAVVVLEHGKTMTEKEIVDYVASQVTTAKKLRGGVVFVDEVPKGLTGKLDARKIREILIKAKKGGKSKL

CCOc1ccc(Nc2ccnc3cc(Cl)ccc23)cc1 [MMV007285]
cytotoxicity at 50 µM (HepG2-A16-CD81EGFP cells; [3]): 16%
IC50 (HepG2-A16-CD81EGFP cells): > 50 µM
inhibition at 50 µM (HepG2-A16-CD81EGFP cells): 14%
inhibition at 50 µM [1, 4]: 88%
inhibition at 50 µM [1, 5]: 91%
IC50 [1, 6]: 1.65 µM
inhibition at 50 µM [1, 7]: 100%
IC50 [2]: > 50 µM
Emax [2]: 47%

CCc1ccc(Nc2cc(C)nc3nc(C)nn23)cc1 [MMV007374]
cytotoxicity at 50 µM (HepG2-A16-CD81EGFP cells; [3]): 11%
cytotoxicity at 50 µM (HepG2-A16-CD81EGFP cells; [8]): 15%
IC50 (HepG2-A16-CD81EGFP cells): > 50 µM
inhibition at 50 µM (HepG2-A16-CD81EGFP cells): 9%
inhibition at 50 µM [1, 4]: 92%
inhibition at 50 µM [1, 5]: 91%
IC50 [1, 6]: 4.8 µM
inhibition at 50 µM [1, 7]: 101%
IC50 [2]: > 50 µM
Emax [2]: 30%

Cc1ccc(Cn2c(N3CCC(C(=O)NCc4cccs4)CC3)nc3ccccc32)cc1 [MMV007564]
cytotoxicity at 50 µM (HepG2-A16-CD81EGFP cells; [3]): 97%
cytotoxicity at 50 µM (HepG2-A16-CD81EGFP cells; [8]): 99%
IC50 (HepG2-A16-CD81EGFP cells): > 50 µM
inhibition at 50 µM (HepG2-A16-CD81EGFP cells): 69%
inhibition at 50 µM [1, 4]: 104%
inhibition at 50 µM [1, 5]: 105%
IC50 [1, 6]: 2.09 µM
inhibition at 50 µM [1, 7]: 106%
IC50 [2]: > 50 µM
Emax [2]: 27%

COc1ccc(C(C)=O)cc1N1C(=O)C2C(C1=O)C1(c3ccccc3)C(=O)C2(c2ccccc2)C(c2ccc(C)cc2)=C1c1ccc(C)cc1 (stereo not drawn) [MMV007695]
cytotoxicity at 50 µM (HepG2-A16-CD81EGFP cells; [3]): -1.58%
cytotoxicity at 50 µM (HepG2-A16-CD81EGFP cells; [8]): 13%
IC50 (HepG2-A16-CD81EGFP cells): > 50 µM
inhibition at 50 µM (HepG2-A16-CD81EGFP cells): 5.54%
inhibition at 50 µM [1, 4]: 101%
inhibition at 50 µM [1, 5]: 104%
IC50 [1, 9]: 24.8 µM
inhibition at 50 µM [1, 7]: 60%
IC50 [2]: > 50 µM
Emax [2]: 35%

CCCCOc1ccc(C(=O)Nc2cc(C)on2)cc1 [MMV007906]
cytotoxicity at 50 µM (HepG2-A16-CD81EGFP cells; [3]): -15%
cytotoxicity at 50 µM (HepG2-A16-CD81EGFP cells; [8]): -10%
IC50 (HepG2-A16-CD81EGFP cells): > 10 µM
inhibition at 10 µM (HepG2-A16-CD81EGFP cells): 7.53%
inhibition at 50 µM [1, 4]: 98%
inhibition at 50 µM [1, 5]: 98%
IC50 [1, 6]: 0.907 µM
inhibition at 10 µM [1]: 97%
IC50 [2]: > 20 µM
Emax [2]: 34%

CCOc1ccc(CCNC(=O)c2cccs2)cc1OCC [MMV007978]
cytotoxicity at 50 µM (HepG2-A16-CD81EGFP cells; [3]): 43%
cytotoxicity at 50 µM (HepG2-A16-CD81EGFP cells; [8]): 10%
IC50 (HepG2-A16-CD81EGFP cells): > 50 µM
inhibition at 50 µM (HepG2-A16-CD81EGFP cells): 8%
inhibition at 50 µM [1, 4]: 104%
inhibition at 50 µM [1, 5]: 106%
IC50 [1, 6]: 7.94 µM
inhibition at 50 µM [1, 7]: 104%
IC50 [2]: > 50 µM
Emax [2]: 34%

Cc1c(C)n(Cc2ccc(F)cc2)c2ccc(C(=O)NCc3ccco3)cc12 [MMV008149]
cytotoxicity at 50 µM (HepG2-A16-CD81EGFP cells; [3]): 9%
cytotoxicity at 50 µM (HepG2-A16-CD81EGFP cells; [8]): 19%
IC50 (HepG2-A16-CD81EGFP cells): > 50 µM
inhibition at 50 µM (HepG2-A16-CD81EGFP cells): 32%
inhibition at 50 µM [1, 4]: 102%
inhibition at 50 µM [1, 5]: 102%
IC50 [1, 6]: 0.765 µM
inhibition at 50 µM [1, 7]: 107%
IC50 [2]: > 50 µM
Emax [2]: 10%

Oc1c2c(nc3cc(-c4ccccc4)nn13)CCCC2 [MMV008270]
cytotoxicity at 50 µM (HepG2-A16-CD81EGFP cells; [3]): -14%
cytotoxicity at 50 µM (HepG2-A16-CD81EGFP cells; [8]): -22%
IC50 (HepG2-A16-CD81EGFP cells): > 10 µM
inhibition at 10 µM (HepG2-A16-CD81EGFP cells): 8%
inhibition at 50 µM [1, 4]: 103%
inhibition at 50 µM [1, 5]: 104%
IC50 [1, 6]: 0.147 µM
inhibition at 10 µM [1]: 106%
IC50 [2]: 0.577 µM
Emax [2]: 92%

CCN1CCN(c2c(C(=O)c3ccccc3)cnc3cc(OC)c(OC)cc23)CC1 [MMV008474]
cytotoxicity at 50 µM (HepG2-A16-CD81EGFP cells; [3]): 7%
IC50 (HepG2-A16-CD81EGFP cells): > 50 µM
inhibition at 50 µM (HepG2-A16-CD81EGFP cells): 7%
inhibition at 50 µM [1, 4]: 102%
inhibition at 50 µM [1, 5]: 103%
IC50 [1, 6]: 1.01 µM
inhibition at 50 µM [1, 7]: 106%
IC50 [2]: > 50 µM
Emax [2]: 22%

CCOc1cc2c(cc1OCC)C(c1cc(OC)c(O)cc1Cl)NCC2 (stereo not drawn) [MMV008956]
cytotoxicity at 50 µM (HepG2-A16-CD81EGFP cells; [3]): -6.54%
cytotoxicity at 50 µM (HepG2-A16-CD81EGFP cells; [8]): -15%
IC50 (HepG2-A16-CD81EGFP cells): > 10 µM
inhibition at 10 µM (HepG2-A16-CD81EGFP cells): 9%
inhibition at 50 µM [1, 4]: 101%
inhibition at 50 µM [1, 5]: 100%
IC50 [1, 9]: > 10 µM
inhibition at 10 µM [1]: 22%
IC50 [2]: > 20 µM
Emax [2]: 24%

CCN(CC)c1ccc(NC(=O)c2cccs2)cc1 [MMV009060]
cytotoxicity at 50 µM (HepG2-A16-CD81EGFP cells; [3]): 7%
cytotoxicity at 50 µM (HepG2-A16-CD81EGFP cells; [8]): 16%
IC50 (HepG2-A16-CD81EGFP cells): > 50 µM
inhibition at 50 µM (HepG2-A16-CD81EGFP cells): 6%
inhibition at 50 µM [1, 4]: 101%
inhibition at 50 µM [1, 5]: 102%
IC50 [1, 6]: 1.76 µM
inhibition at 50 µM [1, 7]: 104%
IC50 [2]: 33.1 µM
Emax [2]: 80%

CC(C)(C)c1ccc(C2CC3=Nc4ccccc4N(C(=O)c4ccccc4Cl)C(c4ccc(F)cc4)C3=C(O)C2)cc1 (stereo not drawn) [MMV011436]
cytotoxicity at 50 µM (HepG2-A16-CD81EGFP cells; [3]): 1.44%
IC50 (HepG2-A16-CD81EGFP cells): > 50 µM
inhibition at 50 µM (HepG2-A16-CD81EGFP cells): 19%
inhibition at 50 µM [1, 4]: 93%
inhibition at 50 µM [1, 5]: 94%
IC50 [1, 6]: 2.39 µM
inhibition at 50 µM [1, 7]: 99%
IC50 [2]: > 50 µM
Emax [2]: 20%

Cc1cc(NC(=O)c2ccc(-c3ccccc3)cc2)no1 [MMV018984]
cytotoxicity at 50 µM (HepG2-A16-CD81EGFP cells; [3]): -22%
cytotoxicity at 50 µM (HepG2-A16-CD81EGFP cells; [8]): -20%
IC50 (HepG2-A16-CD81EGFP cells): > 10 µM
inhibition at 10 µM (HepG2-A16-CD81EGFP cells): 19%
inhibition at 50 µM [1, 4]: 101%
inhibition at 50 µM [1, 5]: 100%
IC50 [1, 6]: 0.79 µM
inhibition at 10 µM [1]: 101%
IC50 [2]: > 20 µM
Emax [2]: 58%

COc1ccc(N2CCN(C(CNC(=O)C3CCCCC3)c3ccc4c(c3)OCO4)CC2)cc1 (stereo not drawn) [MMV019662]
cytotoxicity at 50 µM (HepG2-A16-CD81EGFP cells; [3]): 18%
cytotoxicity at 50 µM (HepG2-A16-CD81EGFP cells; [8]): 28%
IC50 (HepG2-A16-CD81EGFP cells): > 50 µM
inhibition at 50 µM (HepG2-A16-CD81EGFP cells): 19%
inhibition at 50 µM [1, 4]: 89%
inhibition at 50 µM [1, 5]: 94%
IC50 [1, 9]: > 50 µM
inhibition at 50 µM [1, 7]: 49%
IC50 [2]: > 50 µM
Emax [2]: 38%

O=C(Nc1ccc(N2CCN(Cc3ccccc3)CC2)cc1)c1cccs1 [MMV019670]
cytotoxicity at 50 µM (HepG2-A16-CD81EGFP cells; [3]): -7.52%
cytotoxicity at 50 µM (HepG2-A16-CD81EGFP cells; [8]): -9%
IC50 (HepG2-A16-CD81EGFP cells): > 10 µM
inhibition at 10 µM (HepG2-A16-CD81EGFP cells): 32%
inhibition at 50 µM [1, 4]: 102%
inhibition at 50 µM [1, 5]: 102%
IC50 [1, 6]: 0.0944 µM
inhibition at 10 µM [1]: 110%
IC50 [2]: > 20 µM
Emax [2]: 14%

COc1cccc(C(=O)Nc2ccc(-c3nc4ccccc4[nH]3)cc2)c1 [MMV019762]
cytotoxicity at 50 µM (HepG2-A16-CD81EGFP cells; [3]): -16%
IC50 (HepG2-A16-CD81EGFP cells): > 10 µM
inhibition at 10 µM (HepG2-A16-CD81EGFP cells): 9%
inhibition at 50 µM [1, 4]: -94%
inhibition at 50 µM [1, 5]: -91%
IC50 [1, 9]: > 10 µM
inhibition at 10 µM [1]: 31%
IC50 [2]: > 20 µM
Emax [2]: -3%

O=C(NC1CCN(Cc2ccccc2)CC1)c1cc(-c2cccnc2)nc2ccc(Cl)cc12 [MMV020490]
cytotoxicity at 50 µM (HepG2-A16-CD81EGFP cells; [3]): 0.383%
cytotoxicity at 50 µM (HepG2-A16-CD81EGFP cells; [8]): -0.245%
IC50 (HepG2-A16-CD81EGFP cells): > 50 µM
inhibition at 50 µM (HepG2-A16-CD81EGFP cells): 12%
inhibition at 50 µM [1, 4]: 95%
inhibition at 50 µM [1, 5]: 91%
IC50 [1, 9]: > 50 µM
inhibition at 50 µM [1, 7]: 71%
IC50 [2]: > 50 µM
Emax [2]: 23%

CC(=O)Nc1nnc(SCc2c(C)cc(C(C)(C)C)cc2C)s1 [MMV020700]
cytotoxicity at 50 µM (HepG2-A16-CD81EGFP cells; [3]): 0.191%
cytotoxicity at 50 µM (HepG2-A16-CD81EGFP cells; [8]): 8%
IC50 (HepG2-A16-CD81EGFP cells): > 50 µM
inhibition at 50 µM (HepG2-A16-CD81EGFP cells): 10%
inhibition at 50 µM [1, 4]: 103%
inhibition at 50 µM [1, 5]: 105%
IC50 [1, 6]: 2.29 µM
inhibition at 50 µM [1, 7]: 103%
IC50 [2]: > 50 µM
Emax [2]: 34%

CCCCCC(=O)N1c2ccccc2N=C2CC(c3ccc(OC)c(OC)c3)CC(O)=C2C1c1ccc(C(F)(F)F)cc1 (stereo not drawn) [MMV085583]
cytotoxicity at 50 µM (HepG2-A16-CD81EGFP cells; [3]): 14%
cytotoxicity at 50 µM (HepG2-A16-CD81EGFP cells; [8]): 28%
IC50 (HepG2-A16-CD81EGFP cells): > 50 µM
inhibition at 50 µM (HepG2-A16-CD81EGFP cells): 4.23%
inhibition at 50 µM [1, 4]: 97%
inhibition at 50 µM [1, 5]: 90%
IC50 [1, 6]: 7.1 µM
inhibition at 50 µM [1, 7]: 89%
IC50 [2]: > 50 µM
Emax [2]: 34%

Reference: paper PMC4890880 (ACS infectious diseases, 2016)
